We go through 14 compounds from ChEMBL document CHEMBL5137058, “Therapeutic Strategies to Target the Androgen Receptor” (J Med Chem, 2022).

As usually defined, the IC50 is the concentration at which inhibition is half-maximal. A word on the T/C: it is the ratio of treated to control. In general, EC50 refers to the concentration that produces a half-maximal response. As a reminder, the half-life is how long it takes for the measured level to halve. What is called ED50 is the dose that gives a 50% effect, or the effect in half of the subjects. As usually defined, the Ki is the equilibrium dissociation constant of an inhibitor or competing ligand from its target. A word on the bioavailability: it is dose-corrected exposure relative to a reference, in per cent.

Molecules are shown by their SMILES.

Data set [1] is described as follows: Antiproliferative activity against androgen-sensitive mouse SEM-107 cells. Type of data set: functional, cell-based.
In data set [2] the test system is T47D. Kind of data set: Antiproliferative activity against human T47D cells. Type of data set: functional, cell-based.
A short description of data set [3]: In vivo agonist activity at Androgen receptor in male rat assessed as increase in levator ani muscle weight at 0.1 mg/kg, po administered for 14 days. Type of data set: functional. The conditions noted are these: time 14 day.
Data set [4] can be described thus: In vivo agonist activity at Androgen receptor in male rat assessed as increase in prostate weight at 0.1 mg/kg, po administered for 14 days. Format: functional. The conditions noted are these: time 14 day.
A short description of data set [5]: Antitumor activity against bicalutamide-resistant human LNCaP-cxD2 cells xenografted in mouse at 40 mg/kg, po administered for 28 days. Format: functional. The settings on record: time 28 day. For orientation: A xenograft is tissue or cells of one species grown in another, often human tumour cells in immunodeficient mice.
Data set [6] deals with T1, Androgen receptor (Homo sapiens, UniProt P10275).
T1 sequence (P10275 whole entry): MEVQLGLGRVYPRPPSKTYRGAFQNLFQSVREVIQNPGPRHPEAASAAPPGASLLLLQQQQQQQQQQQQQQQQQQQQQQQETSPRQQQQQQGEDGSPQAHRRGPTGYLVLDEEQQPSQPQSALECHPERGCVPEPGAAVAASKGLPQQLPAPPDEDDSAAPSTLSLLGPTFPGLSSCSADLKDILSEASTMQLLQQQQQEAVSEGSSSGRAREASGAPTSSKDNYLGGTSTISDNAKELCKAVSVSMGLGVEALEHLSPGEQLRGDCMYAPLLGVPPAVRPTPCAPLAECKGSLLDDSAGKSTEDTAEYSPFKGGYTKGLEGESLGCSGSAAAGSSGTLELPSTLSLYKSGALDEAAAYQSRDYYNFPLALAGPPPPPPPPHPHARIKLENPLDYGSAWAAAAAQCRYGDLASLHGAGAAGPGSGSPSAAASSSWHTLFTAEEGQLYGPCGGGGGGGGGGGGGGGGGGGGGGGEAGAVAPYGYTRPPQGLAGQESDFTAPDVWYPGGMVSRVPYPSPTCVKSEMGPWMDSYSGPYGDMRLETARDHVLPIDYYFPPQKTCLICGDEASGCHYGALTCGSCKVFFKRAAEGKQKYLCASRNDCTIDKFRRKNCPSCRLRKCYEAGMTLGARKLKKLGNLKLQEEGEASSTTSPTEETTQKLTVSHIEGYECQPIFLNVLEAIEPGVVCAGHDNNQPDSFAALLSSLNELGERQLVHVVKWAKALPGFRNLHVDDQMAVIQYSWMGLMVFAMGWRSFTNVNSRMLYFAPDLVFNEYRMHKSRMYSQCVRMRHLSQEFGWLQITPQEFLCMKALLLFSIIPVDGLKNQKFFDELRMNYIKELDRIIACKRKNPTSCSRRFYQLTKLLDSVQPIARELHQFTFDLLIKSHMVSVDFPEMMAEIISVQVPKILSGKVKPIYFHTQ
Put plainly: Binding affinity to Androgen receptor (unknown origin). The conditions noted are these: read-out: IC50.

The target in data set [7] is T1, Androgen receptor. Put plainly: Agonist activity at Androgen receptor (unknown origin) measured by androgen response element luciferase assay.
The subject of data set [8] is LNCaP. Kind of data set: Antiproliferative activity against human LNCaP cells expressing Androgen receptor T878A mutant. Format: functional, cell-based.
Data set [9] has as its target T1, Androgen receptor. Put plainly: Binding affinity to wild-type Androgen receptor (unknown origin).
Data set [10] has as its system LNCaP. Kind of data set: Antiproliferative activity against human LNCaP cells expressing wild-type Androgen receptor. Type of data set: functional, cell-based.
In data set [11] the target is Androgen receptor (Homo sapiens, UniProt P10275, T878A). Kind of data set: Binding affinity to bicalutamide-resistant Androgen receptor T878A mutant (unknown origin).
In data set [12] the test system is LNCaP. Put plainly: Antitumor activity against human LNCaP cells xenografted in mouse assessed as decrease in PSA level at 100 mg/kg, sc. Type of data set: functional. Details: scale not given: the % may be the effect or the level left.
The nature of data set [13]: Half-life in plasma of rat. Format: ADME.
Data set [14] can be described thus: In vivo agonist activity at Androgen receptor in rat assessed as increase in levator ani muscle weight administered orally for 14 days. Format: functional. The conditions noted are these: 336 h, route po, time 14 day.
In data set [15] the target is T1, Androgen receptor. Put plainly: Agonist activity at human Androgen receptor expressed in African green monkey CV-1 cells measured by ARE-luciferase assay. Format: cell-based.
In data set [16] the target is T1, Androgen receptor. Kind of data set: Activation of human Androgen receptor N/C (N-terminal/C-terminal) interaction.
Data set [17] addresses T1, Androgen receptor. Put plainly: Binding affinity to human Androgen receptor measured by fluorescence polarization assay. (In general: Fluorescence polarisation rises when a labelled molecule tumbles more slowly, as on binding a larger partner.)
Data set [18] concerns the target T1, Androgen receptor. Kind of data set: Antagonist activity at wild-type Androgen receptor (unknown origin) expressed in African green monkey COS-7 cells measured as gene transcription level. Format: cell-based.
Data set [19] is described as follows: Antitumor activity against bicalutamide-resistant human LNCaP-cxD2 cells xenografted in mouse at 50 mg/kg, po administered for 28 days. Type of data set: functional. The conditions noted are these: time 28 day.
The target in data set [20] is Androgen receptor (Rattus norvegicus, UniProt P15207). Kind of data set: Binding affinity to rat Androgen receptor in African green monkey COS-7 cells measured by whole-cell binding assay. Type of data set: cell-based.
The target of data set [21] is T1, Androgen receptor.
Description: Antagonist activity at Androgen receptor in human LNCaP cells assessed as inhibition of PSA expression
For data set [22], the target named is T1, Androgen receptor. Type of data set: cell-based, LNCaP C4-2.
Description: Antagonist activity at Androgen receptor in human LNCaP C4-2 cells transfected with PSA6.1-luc and pRL-TK measured by luciferase gene reporter assay
For data set [23], the system named is VCaP. Kind of data set: Antiproliferative activity against human VCaP cells. Format: functional, cell-based.
For data set [24], the system named is LNCaP. Put plainly: Antitumor activity against human LNCaP cells expressing Androgen receptor F877L mutant xenografted in mouse assessed as tumor growth inhibition at 30 mg/kg, po administered daily. Format: functional. The conditions noted are these: read-out: TGI.
Data set [25] is described as follows: Oral bioavailability in mouse. Type of data set: ADME, organism-based. The conditions noted are these: in vivo.

Androgen receptor (Rattus norvegicus, UniProt P15207), sequence (P15207 whole entry S389L): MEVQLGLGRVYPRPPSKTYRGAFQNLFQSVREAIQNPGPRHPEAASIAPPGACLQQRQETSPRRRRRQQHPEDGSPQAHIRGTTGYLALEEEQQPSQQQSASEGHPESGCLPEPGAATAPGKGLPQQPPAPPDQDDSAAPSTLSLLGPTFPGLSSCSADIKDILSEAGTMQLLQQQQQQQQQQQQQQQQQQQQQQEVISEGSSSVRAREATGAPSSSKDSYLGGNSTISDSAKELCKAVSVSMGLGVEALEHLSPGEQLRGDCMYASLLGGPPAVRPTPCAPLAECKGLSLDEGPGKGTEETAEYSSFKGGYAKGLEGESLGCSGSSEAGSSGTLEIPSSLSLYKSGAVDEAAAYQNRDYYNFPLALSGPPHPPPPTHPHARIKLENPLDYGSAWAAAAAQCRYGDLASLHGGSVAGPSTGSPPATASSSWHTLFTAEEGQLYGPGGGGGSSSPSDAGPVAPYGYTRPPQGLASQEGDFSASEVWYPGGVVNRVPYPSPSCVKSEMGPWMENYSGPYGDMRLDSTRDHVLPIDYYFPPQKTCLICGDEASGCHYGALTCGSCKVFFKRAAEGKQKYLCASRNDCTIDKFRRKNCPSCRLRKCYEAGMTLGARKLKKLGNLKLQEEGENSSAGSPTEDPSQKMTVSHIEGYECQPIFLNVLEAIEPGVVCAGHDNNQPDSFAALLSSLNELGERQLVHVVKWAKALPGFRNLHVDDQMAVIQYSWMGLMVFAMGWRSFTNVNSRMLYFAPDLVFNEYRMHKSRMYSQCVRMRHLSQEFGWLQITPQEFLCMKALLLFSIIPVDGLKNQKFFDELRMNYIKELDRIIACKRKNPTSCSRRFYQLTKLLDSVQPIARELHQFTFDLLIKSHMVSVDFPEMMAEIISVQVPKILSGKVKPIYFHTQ
Androgen receptor (Homo sapiens, UniProt P10275, T878A), sequence (P10275 whole entry T878A): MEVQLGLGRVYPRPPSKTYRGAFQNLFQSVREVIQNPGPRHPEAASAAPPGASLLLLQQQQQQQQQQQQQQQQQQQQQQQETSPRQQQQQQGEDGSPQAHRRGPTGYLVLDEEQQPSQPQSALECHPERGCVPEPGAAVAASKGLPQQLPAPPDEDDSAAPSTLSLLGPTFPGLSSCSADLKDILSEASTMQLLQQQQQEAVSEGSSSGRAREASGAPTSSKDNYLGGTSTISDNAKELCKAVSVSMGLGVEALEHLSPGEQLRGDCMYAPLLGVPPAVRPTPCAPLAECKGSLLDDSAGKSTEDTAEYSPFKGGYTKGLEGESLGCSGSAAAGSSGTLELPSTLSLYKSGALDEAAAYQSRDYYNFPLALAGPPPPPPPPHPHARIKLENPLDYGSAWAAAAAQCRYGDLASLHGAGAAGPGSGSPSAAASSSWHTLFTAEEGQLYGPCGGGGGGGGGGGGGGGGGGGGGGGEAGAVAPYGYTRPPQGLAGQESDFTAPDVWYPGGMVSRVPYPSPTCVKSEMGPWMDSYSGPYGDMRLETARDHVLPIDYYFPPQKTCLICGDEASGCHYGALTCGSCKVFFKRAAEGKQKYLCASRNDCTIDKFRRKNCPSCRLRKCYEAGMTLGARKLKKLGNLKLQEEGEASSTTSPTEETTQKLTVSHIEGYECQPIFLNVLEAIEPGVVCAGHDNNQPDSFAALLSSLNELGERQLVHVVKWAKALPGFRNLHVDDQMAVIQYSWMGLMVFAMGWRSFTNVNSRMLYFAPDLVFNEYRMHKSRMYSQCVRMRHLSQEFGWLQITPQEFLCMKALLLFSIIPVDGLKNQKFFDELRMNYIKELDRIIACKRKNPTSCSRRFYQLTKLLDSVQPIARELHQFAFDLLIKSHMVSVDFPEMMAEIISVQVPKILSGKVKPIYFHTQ

Regarding `CC(C)(O)C(=O)Nc1ccc([N+](=O)[O-])c(C(F)(F)F)c1` [HYDROXYFLUTAMIDE], the IC50 in data set [1] was determined as 84 nM; in data set [2], 45 nM.

Consider `Cc1c(/N=C2\O[C@@H](C(F)(F)F)[C@@H]3[C@@H](O)CCN23)ccc(C#N)c1Cl`, for which the Activity in data set [3] and in data set [4] was 100% throughout.

For the compound `Cc1nn(-c2ccc(C#N)c(Cl)c2)c(C)c1Cc1ccc(C(=O)NCC(C)(C)O)cc1`, the T/C in data set [5] was determined as 23%.

`C[C@](O)(CCOc1ccc(F)cc1)C(=O)N1CCc2c(C#N)cccc21`: in data set [6], the IC50 is 12.7 nM. This compound also yielded an EC50 in [7] of 2.5 nM.

For the compound `CNC(=O)c1ccc([C@]2(O)CCN(c3ccc(C#N)c(Cl)c3)[C@H]2C)cn1`, the IC50 came out at 1700 nM in data set [8], 830 nM in data set [9], 290 nM in data set [10] and 1700 nM in data set [11].

In the case of `CC1(C)[C@H](NC(=O)c2cnn(CCO)c2)C(C)(C)[C@H]1Oc1ccc(C#N)c(Cl)c1`, the Activity in data set [12] was greater than 90%.

With `CC[C@H]1[C@@H]2[C@@H](O)CCN2C(=O)N1c1ccc(C#N)c(Cl)c1C`, the half-life in data set [13] was 330 min. Moreover, the ED50 in data set [14] was 0.09 mg/kg.

`N#Cc1ccc(-c2ccc(O)cc2F)[nH]1`: the EC50 in data set [15] was determined as 0.34 nM; in data set [16] it was 1210 nM.

For `Cc1c(N[C@@H](c2ccc(-c3ccc(C#N)cc3)o2)[C@H](C)O)ccc(C#N)c1Cl`, the Ki in [17] came out at 7 nM.

With `Cc1nn(-c2ccc(C#N)c(Cl)c2)c(C)c1Oc1ccc(C(=O)NC(C)(C)C)cn1`, the IC50 in [18] was 1000 nM; in data set [9] it was 430 nM. In addition, the T/C in [19] was determined as 17%.

Compound `OC1(C(F)(F)F)CCCC2c3cc(Cl)c(Cl)cc3NC21` (stereo unspecified) returned a half-maximal inhibitory concentration (IC50) in data set [20] of 27 nM.

In turn, `NS(=O)(=O)c1cccc2cc(SCCOc3ccccc3)[nH]c12` showed an IC50 in data set [21] of 530 nM.

Regarding `Cc1ccc(Cl)cc1N1CCN(C(=O)[C@@H]2C[C@@H]2c2ccc(F)cc2)CC1`, the EC50 in data set [22] was determined as 1700 nM.

In the case of `N#Cc1ncc(N2C(=O)C3(CCC3)N(c3ccc(OC4CCNCC4)nc3)C2=S)cc1C(F)(F)F` [TRC-253], 290 nM corresponded to half-maximal inhibition in data set [23] (IC50). Further, the inhibition in vivo at 30 mg/kg in [24] stood at 87%. The same compound showed a bioavailability in data set [25] of 45%.
